# Assay results reported in paper PMC7906907, “Targeting STAT3 by a small molecule suppresses pancreatic cancer progression” (Oncogene, 2021).
# What was measured:
# STAT3 dimerization = biological target: T1, STAT3 dimerization (Homo sapiens, UniProt P40763); experiment: STAT3 dimerization experiment (immunoprecipitation); assay type: cell-based; conditions: PANC-1 cells, 2 μM, with or without IL-6 stimulation
# T1 construct: endogenous in cells; host or cells: PANC-1
# Description: Fig. 3 N4 interacts with the STAT3-SH2 domain and interferes with the STAT3-EGFR and STAT3-NF-κB interactions. […] C–E The binding between N4 and STAT3 was examined in (C) SPR and (D) MST experiments. His-STAT3^127-722 protein was purified and used to examine the affinity between STAT3 and N4. (E) The binding between N4 and STAT3^SH2 was confirmed in MST assays. STAT3-SH2 protein was purified and labeled. N4 was serially diluted and mixed with equal volumes of labeled STAT3^SH2 protein. The MST signal was measured, and the data were analyzed by MO analysis software. F, G The FLAG-tag and HA-tag STAT3 expression plasmid was transfected into 293 T cells, followed by the addition of the indicated concentrations of N4. After 24 h, cells were lysed, and immunoprecipitation experiments were performed as described in Materials and Methods. H N4 represses STAT3 dimerization in pancreatic cancer cells. I After a 24 h treatment with 2 μM N4, pancreatic cancer cells were stimulated with IL-6 for 30 min. Cell lysates were immunoprecipitated with STAT3 overnight. The precipitates were washed, suspended in non-reducing sample buffer, and boiled for 10 min. The indicated antibodies were used for western blot assays. […]
# Co-IP was performed as previously described. […] After overnight incubation, the precipitates were washed and analyzed using western blotting.
# PANC-1 = PANC-1 subcutaneous tumor growth xenograft model; assay type: in vivo
# Protocol: Fig. 5 N4 suppresses pancreatic cancer growth in vivo. PANC-1 cells were injected into the right flank of BALB/c-nude mice. After the volume of tumor nodules reached 200–300 mm^3, the mice were randomly assigned to the indicated groups and were injected intraperitoneally daily with vehicle (n = 7), 40 mg/kg/d C188-9 (n = 7), 10 mg/kg/d N4 (n = 8), or 20 mg/kg/d N4 (n = 8). The mice were sacrificed after treatment for 20 days and the tumors from each group of mice were excised. A, B Tumor volumes were measured every 4 days. Tumor volumes were calculated by the formula: length × width^2 × 0.52. […] C After treatment for 20 days, the tumors from each group of mice were excised and photographed. D After the experiments, all the tumors were weighted. […] E Tumor samples were collected, and protein was extracted for western blot analysis. p-STAT3 (Y705), p-STAT3(S727), STAT3, and CMYC were detected, with GAPDH used as the loading control. Immunohistochemistry examinations were performed in the different treatment groups, p-STAT3 (Y705), Ki-67 and cleaved caspase3 were quantified (F) and photographed (G). The scale bar denotes 20 μm. Data are expressed as mean ± SD, **P < 0.01, ****P < 0.0001 and n.s. not significant by one-way ANOVA.
# BALB/c-nude, male, 6–8-week-old mice were obtained from the Animal Center of East China Normal University. All animal experimental protocols were approved by the Animal Investigation Committee of the Institute of Biomedical Sciences, East China Normal University. PANC-1 cells (5 × 10^6) were suspended in PBS with 50% Matrigel and injected into the right flank of the mice. Treatment began after the tumor nodules reached 150–250 mm^3 in volume. The tumor-bearing mice were randomly assigned to four groups and treated with the indicated compounds. The tumor volume and mice body weight were measured after 4 days. The tumor volume (V) was calculated as length × width × width × 0.52. At the end of experiment, the mice were sacrificed. Solid tumors were removed and processed for immunohistochemistry analysis.
# PAN02-luc = experiment: Pancreatic cancer liver metastatic mouse model; assay type: in vivo, C57BL/6 mice; conditions: for mice alive: n = 5
# Protocol: C57BL/6 mice were intrasplenically injected with luciferase-expressing PAN02 cells (PAN02-luc) in matrigel and tumor growth was assessed (A) and quantified (B) by bioluminescent imaging weekly. […] C After 4 weeks, mice were sacrificed and livers were imaged. D The body weight of C57BL/6 tumor-bearing mice were measured weekly.
# C57BL/6, male, 8-week-old mice were obtained from the Animal Center of East China Normal University. All animal experimental protocols were approved by the Animal Investigation Committee of the Institute of Biomedical Sciences, East China Normal University. PAN02 cells that stably expressed luciferase (PAN02-luc) were embedded in Matrigel (BD Biosciences) and intrasplenically injected into mice. Tumors were allowed to grow for 1 week and treatment of the mice with either compound or control was started after grouping of the mice according to average bioluminescence. The IVIS Imaging System (Xenogen Corporation) was used to monitor pancreatic tumor growth and metastasis. Images and measurements of bioluminescent signals were acquired and analyzed using Living Image and Xenogen software.
# T1 sequence (P40763 2-770 limits assumed): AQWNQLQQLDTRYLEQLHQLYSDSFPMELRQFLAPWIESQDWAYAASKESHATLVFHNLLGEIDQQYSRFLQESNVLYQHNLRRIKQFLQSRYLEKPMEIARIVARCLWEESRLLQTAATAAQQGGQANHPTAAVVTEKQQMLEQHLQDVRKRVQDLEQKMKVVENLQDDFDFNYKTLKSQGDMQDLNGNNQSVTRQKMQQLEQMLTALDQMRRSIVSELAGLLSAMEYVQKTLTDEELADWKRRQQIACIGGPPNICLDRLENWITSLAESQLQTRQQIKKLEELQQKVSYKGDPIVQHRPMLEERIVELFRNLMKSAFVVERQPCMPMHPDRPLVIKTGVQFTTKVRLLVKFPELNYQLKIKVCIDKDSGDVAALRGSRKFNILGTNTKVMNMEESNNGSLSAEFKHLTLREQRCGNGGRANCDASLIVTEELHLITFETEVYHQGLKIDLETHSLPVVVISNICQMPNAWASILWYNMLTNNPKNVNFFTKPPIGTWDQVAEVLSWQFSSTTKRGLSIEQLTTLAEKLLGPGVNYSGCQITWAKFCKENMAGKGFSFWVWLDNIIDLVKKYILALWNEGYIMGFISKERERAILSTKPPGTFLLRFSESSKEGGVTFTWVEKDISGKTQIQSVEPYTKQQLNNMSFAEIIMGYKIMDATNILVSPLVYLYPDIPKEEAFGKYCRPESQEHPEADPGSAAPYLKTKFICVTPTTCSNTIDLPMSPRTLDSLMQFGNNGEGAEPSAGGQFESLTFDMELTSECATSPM
smiles,measurement,setting,value
COc1cc2c(cc1C(=O)Nc1cccc3cccnc13)CCC1C(C)(C)C(=O)C(C#N)=C[C@]21C (stereo partly drawn) [N4],STAT3 dimerization,STAT3 dimerization,efficiently decreased
same,bodyweight of mice,PANC-1; 10 and 20 mg/kg/d,did not affect
same,pancreatic cancer growth (tumor volume),"PANC-1; 10 and 20 mg/kg/d, intraperitoneally daily, 20 days",significantly inhibited
same,"Hematoxylin and eosin staining of main organs, signs of toxicity","PANC-1; mouse, in vivo",did not produce morphological signs of toxicity
same,mice bodyweight,PAN02-luc; measured weekly,no obvious effect
same,tumor metastasis suppressed compared with the control group,"PAN02-luc; week 4, 10 mg/kg/d",63.25%
same,tumor metastasis suppressed compared with the control group,"PAN02-luc; week 4, 20 mg/kg/d",81.16%
same,mice alive,"PAN02-luc; week 10, 10 mg/kg/d",40%
same,mice alive,"PAN02-luc; week 10, 20 mg/kg/d",80%
